Values of other authors as cited in US9669111B2, “Device for the diagnosis of inflammatory tissues in dental applications” (THOMMEN MEDICAL AG, priority 2012, dated 2017).
Where a name gives a salt, the structure may show the parent alone.

Assays:
human tongue = conditions: for concentration sensed down to (taste recognition): human tongue, average human
[1] = tested on: human volunteers (bitter taste); conditions: reciprocal of the dilution barely noticed as bitter; reference for calibration

SMILES | concentration sensed down to (taste recognition) (human tongue) | also measured
C=C[C@H]1C[N@@]2CC[C@H]1C[C@H]2[C@H](O)c1ccnc2ccc(OC)cc12 [quinine] | – | sensory recognition threshold (human tongue; human): about 0.0004 mmol/L
C=C[C@H]1C[N@@]2CC[C@H]1C[C@H]2[C@H](O)c1ccnc2ccc(OC)cc12 [quinine-HCl] | – | bitter value [1]: 200,000
O=C1NS(=O)(=O)c2ccccc21 [saccharin] | 0.02 mM | –
C=C[C@H]1C[N@@]2CC[C@H]1C[C@H]2[C@H](O)c1ccnc2ccc(OC)cc12 [Quinine sulfate] | 0.0004 mM | –
